# From US9920010B2, “CXCR7 receptor modulators” (IDORSIA PHARMACEUTICALS LTD, priority 2013, dated 2018)
# Where a name gives a salt, the structure may show the parent alone.
# Molecular target: T1, CXCR7 (Homo sapiens, UniProt P25106)
# T1 construct: host or cells: CHO-K1 (PathHunter CHO-K1 CXCR7 b-arrestin cell line, stably transfected)
# Test: PathHunter CHO-K1 CXCR7 b-arrestin recruitment assay (CXCR7 agonistic activity)
# Type: cell-based
# Details: PathHunter CHO-K1 CXCR7 b-arrestin cell line
# Summary of the method: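 Stable CHO-K1 line with C-terminally ProLink-tagged CXCR7 and β-arrestin 2–EA fusion; β-arrestin recruitment restores β-gal activity, read by chemiluminescence after 1 h RT detection. Cells seeded 24 h, starved in OPTIMEM 3–4 h, exposed to compounds 90 min at 37 °C in HBSS/HEPES/BSA. Geometric-mean EC50 from repeated measurements.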
# T1 sequence (P25106 whole entry): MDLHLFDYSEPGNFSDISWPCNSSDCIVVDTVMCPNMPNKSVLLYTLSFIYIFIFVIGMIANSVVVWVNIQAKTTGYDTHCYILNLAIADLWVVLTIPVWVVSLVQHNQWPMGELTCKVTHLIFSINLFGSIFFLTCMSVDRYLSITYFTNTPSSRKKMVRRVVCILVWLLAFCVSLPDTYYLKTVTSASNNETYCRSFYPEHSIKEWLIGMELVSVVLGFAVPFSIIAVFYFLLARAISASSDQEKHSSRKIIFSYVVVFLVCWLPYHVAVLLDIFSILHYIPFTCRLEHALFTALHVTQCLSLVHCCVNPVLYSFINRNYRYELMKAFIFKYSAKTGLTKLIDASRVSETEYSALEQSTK
# T1 sequence (P32121 whole entry partner): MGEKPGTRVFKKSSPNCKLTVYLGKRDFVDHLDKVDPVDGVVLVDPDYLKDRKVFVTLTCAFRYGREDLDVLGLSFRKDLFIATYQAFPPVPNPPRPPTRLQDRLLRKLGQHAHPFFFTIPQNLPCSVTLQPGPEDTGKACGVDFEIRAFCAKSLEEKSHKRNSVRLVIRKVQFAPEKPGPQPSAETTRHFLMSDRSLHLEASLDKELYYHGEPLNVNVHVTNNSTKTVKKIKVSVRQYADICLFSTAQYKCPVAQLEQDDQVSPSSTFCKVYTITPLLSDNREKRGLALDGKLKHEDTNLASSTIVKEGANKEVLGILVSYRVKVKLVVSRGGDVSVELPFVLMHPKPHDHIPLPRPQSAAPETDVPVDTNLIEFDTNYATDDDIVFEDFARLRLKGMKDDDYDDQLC
row,EC50,Structure (SMILES)
1,46 nM,"CCC(=O)N1CCc2c(CCC(=O)N(CCN(C)C)Cc3ccccc3)cccc2C1 [Example 162, N-Benzyl-N-(2-dimethylamino-ethyl)-3-(2-propionyl-1,2,3,4-tetrahydro-isoquinolin-5-yl)-propionamide]"
2,339 nM,"CN1CCc2c(cccc2NCC(=O)N(Cc2ccccc2)CC2CC2)C1 [Example 175, N-Benzyl-N-cyclopropylmethyl-2-(2-methyl-1,2,3,4-tetrahydro-isoquinolin-5-ylamino)-acetamide]"
3,3 nM,"CNCCN(Cc1ccccc1C(F)(F)F)C(=O)CNc1cccc2c1CCN(CC1CC1)C2 [Example 179, 2-(2-Cyclopropylmethyl-1,2,3,4-tetrahydro-isoquinolin-5-ylamino)-N-(2-methylamino-ethyl)-N-(2-trifluoromethyl-benzyl)-acetamide]"
4,117 nM,"CN(C)CCN(Cc1ccccc1)C(=O)CNc1cccc2c1CN(C(=O)OC(C)(C)C)CC2 [Example 181, 8-({[Benzyl-(2-dimethylamino-ethyl)-carbamoyl]-methyl}-amino)-3,4-dihydro-1H-isoquinoline-2-carboxylic acid tert-butyl ester]"
5,79 nM,"CCN1CCc2cccc(NCC(=O)N(CCN(C)C)Cc3ccccc3)c2C1 [Example 185, N-Benzyl-N-(2-dimethylamino-ethyl)-2-(2-ethyl-1,2,3,4-tetrahydro-isoquinolin-8-ylamino)-acetamide]"
6,71 nM,"CCC(=O)N1CCc2cccc(NCC(=O)N(CCN(C)C)Cc3ccccc3)c2C1 [Example 188, N-Benzyl-N-(2-dimethylamino-ethyl)-2-(2-propionyl-1,2,3,4-tetrahydro-isoquinolin-8-ylamino)-acetamide]"
7,110 nM,"COC(=O)N1CCc2cccc(NCC(=O)N(CCN(C)C)Cc3ccccc3)c2C1 [Example 190, 8-({[Benzyl-(2-dimethylamino-ethyl)-carbamoyl]-methyl}-amino)-3,4-dihydro-1H-isoquinoline-2-carboxylic acid methyl ester]"
8,248 nM,"CN(C)CCN(Cc1ccccc1)C(=O)CNc1cccc2c1CN(C)C2 [Example 208, N-Benzyl-N-(2-dimethylamino-ethyl)-2-(2-methyl-2,3-dihydro-1H-isoindol-4-ylamino)-acetamide]"
9,51 nM,"CN(C)CCN(Cc1ccccc1)C(=O)CNc1cccc2c1CN(CC1CC1)C2 [Example 209, N-Benzyl-2-(2-cyclopropylmethyl-2,3-dihydro-1H-isoindol-4-ylamino)-N-(2-dimethylamino-ethyl)-acetamide]"
10,5 nM,"CN(C)CCN(Cc1ccccc1C(F)(F)F)C(=O)CNc1cccc2c1CCN(C1CCCC1)C2 [Example 210, 2-((2-Cyclopentyl-1,2,3,4-tetrahydroisoquinolin-5-yl)amino)-N-(2-(dimethylamino)ethyl)-N-(2-(trifluoromethyl)benzyl)acetamide]"

# More lines, now with the values behind:
row,Structure (SMILES),EC50
1,"CCN(Cc1ccccc1Cl)C(=O)/C=C/c1cccc2c1CCN(C(=O)OC(C)(C)C)C2 [Example 92, 5-{(E)-2-[(2-Chloro-benzyl)-ethyl-carbamoyl]-vinyl}-3,4-dihydro-1H-isoquinoline-2-carboxylic acid tert-butyl ester]",413 nM
2,"CN(C)CCN(Cc1ccccc1)C(=O)/C=C/c1cccc2c1CCN(C(=O)OC(C)(C)C)C2 [Example 93, 5-{(E)-2-[Benzyl-(2-dimethylamino-ethyl)-carbamoyl]-vinyl}-3,4-dihydro-1H-isoquinoline-2-carboxylic acid tert-butyl ester]",88 nM
3,"CCOC(=O)CN(Cc1ccccc1)C(=O)/C=C/c1cccc2c1CCN(C(=O)OC(C)(C)C)C2 [Example 94, 5-[(E)-2-(Benzyl-ethoxycarbonylmethyl-carbamoyl)-vinyl]-3,4-dihydro-1H-isoquinoline-2-carboxylic acid tert-butyl ester]",452 nM
4,"CC(C)(C)OC(=O)N1CCc2c(/C=C/C(=O)N(Cc3ccccc3)C3CCS(=O)(=O)C3)cccc2C1 (centres unmarked) [Example 95, 5-{(E)-2-[Benzyl-(1,1-dioxo-tetrahydro-1l6-thiophen-3-yl)-carbamoyl]-vinyl}-3,4-dihydro-1H-isoquinoline-2-carboxylic acid tert-butyl ester]",432 nM
5,"CN1CCC(N(Cc2ccccc2C(F)(F)F)C(=O)/C=C/c2cccc3c2CCN(C(=O)OC(C)(C)C)C3)CC1 [Example 96, 5-{(E)-2-[(1-Methyl-piperidin-4-yl)-(2-trifluoromethyl-benzyl)-carbamoyl]-vinyl}-3,4-dihydro-1H-isoquinoline-2-carboxylic acid tert-butyl ester]",249 nM
6,"C/C(=C\c1cccc2c1CCN(C(=O)OC(C)(C)C)C2)C(=O)N(CCN(C)C)Cc1ccccc1C(F)(F)F [Example 97, 5-{(E)-2-[(2-Dimethylamino-ethyl)-(2-trifluoromethyl-benzyl)-carbamoyl]-propenyl}-3,4-dihydro-1H-isoquinoline-2-carboxylic acid tert-butyl ester]",365 nM
7,"CN(C)CCN(Cc1ccccc1Cl)C(=O)CCc1cccc2c1CCN(C(=O)OC(C)(C)C)C2 [Example 98, 5-{2-[(2-Chloro-benzyl)-(2-dimethylamino-ethyl)-carbamoyl]-ethyl}-3,4-dihydro-1H-isoquinoline-2-carboxylic acid tert-butyl ester]",224 nM
8,"CN(C)CCN(Cc1ccccc1C(F)(F)F)C(=O)CCc1cccc2c1CCN(C(=O)OC(C)(C)C)C2 [Example 99, 5-{2-[(2-Dimethylamino-ethyl)-(2-trifluoromethyl-benzyl)-carbamoyl]-ethyl}-3,4-dihydro-1H-isoquinoline-2-carboxylic acid tert-butyl ester]",177 nM
9,"CN1CCC(N(Cc2ccccc2C(F)(F)F)C(=O)CCc2cccc3c2CCN(C(=O)OC(C)(C)C)C3)CC1 [Example 100, 5-{2-[(1-Methyl-piperidin-4-yl)-(2-trifluoromethyl-benzyl)-carbamoyl]-ethyl}-3,4-dihydro-1H-isoquinoline-2-carboxylic acid tert-butyl ester]",376 nM
10,"CN(C)CCN(Cc1ccccc1)C(=O)COc1cccc2c1CCN(C(=O)OC(C)(C)C)C2 [Example 101, 5-{[Benzyl-(2-dimethylamino-ethyl)-carbamoyl]-methoxy}-3,4-dihydro-1H-isoquinoline-2-carboxylic acid tert-butyl ester]",148 nM
11,"CCN1CCc2c(cccc2N(CC)CC(=O)N(CCN(C)C)Cc2ccccc2)C1 [Example 102, N-Benzyl-N-(2-dimethylamino-ethyl)-2-[ethyl-(2-ethyl-1,2,3,4-tetrahydro-isoquinolin-5-yl)-amino]-acetamide]",370 nM
12,"CCS(=O)(=O)N1CCc2c(cccc2NCC(=O)N(CCN(C)C)Cc2ccccc2C(F)(F)F)C1 [Example 103, N-(2-Dimethylamino-ethyl)-2-(2-ethanesulfonyl-1,2,3,4-tetrahydro-isoquinolin-5-ylamino)-N-(2-trifluoromethyl-benzyl)-acetamide]",97 nM
13,"CN1CCC(N(Cc2ccccc2C(F)(F)F)C(=O)CNc2cccc3c2CCN(CC2CC2)C3)CC1 [Example 105, 2-(2-Cyclopropylmethyl-1,2,3,4-tetrahydro-isoquinolin-5-ylamino)-N-(1-methyl-piperidin-4-yl)-N-(2-trifluoromethyl-benzyl)-acetamide]",9 nM
14,"CC(=O)N1CCc2c(cccc2NCC(=O)N(CCN(C)C)Cc2ccccc2)C1 [Example 108, 2-(2-Acetyl-1,2,3,4-tetrahydro-isoquinolin-5-ylamino)-N-benzyl-N-(2-dimethylamino-ethyl)-acetamide]",52 nM
15,"COC(=O)N1CCc2c(cccc2NCC(=O)N(CCN(C)C)Cc2ccccc2)C1 [Example 113, 5-({[Benzyl-(2-dimethylamino-ethyl)-carbamoyl]-methyl}-amino)-3,4-dihydro-1H-isoquinoline-2-carboxylic acid methyl ester]",26 nM
16,"O=C(/C=C/c1cccc2c1CCN(CC1CC1)C2)N(CCO)Cc1ccccc1 [Example 138, (E)-N-Benzyl-3-(2-cyclopropylmethyl-1,2,3,4-tetrahydro-isoquinolin-5-yl)-N-(2-hydroxy-ethyl)-acrylamide]",55 nM
17,"NC(=O)CCN(Cc1ccccc1)C(=O)/C=C/c1cccc2c1CCN(CC1CC1)C2 [Example 140, (E)-N-Benzyl-N-(2-carbamoyl-ethyl)-3-(2-cyclopropylmethyl-1,2,3,4-tetrahydro-isoquinolin-5-yl)-acrylamide dihydrochloride]",54 nM
18,"COC(=O)N1CCc2c(cccc2OCC(=O)N(CCN(C)C)Cc2ccccc2)C1 [Example 167, 5-{[Benzyl-(2-dimethylamino-ethyl)-carbamoyl]-methoxy}-3,4-dihydro-1H-isoquinoline-2-carboxylic acid methyl ester]",39 nM
19,"CN(C)CCN(Cc1ccccc1)C(=O)COc1cccc2c1CN(C)CC2 [Example 201, N-Benzyl-N-(2-dimethylamino-ethyl)-2-(2-methyl-1,2,3,4-tetrahydro-isoquinolin-8-yloxy)-acetamide]",27 nM
20,"COC(=O)N1CCc2cccc(OCC(=O)N(CCN(C)C)Cc3ccccc3)c2C1 [Example 204, 8-{[Benzyl-(2-dimethylamino-ethyl)-carbamoyl]-methoxy}-3,4-dihydro-1H-isoquinoline-2-carboxylic acid methyl ester]",40 nM
21,"CCC(=O)N1CCc2cccc(OCC(=O)N(CCN(C)C)Cc3ccccc3)c2C1 [Example 206, N-Benzyl-N-(2-dimethylamino-ethyl)-2-(2-propionyl-1,2,3,4-tetrahydro-isoquinolin-8-yloxy)-acetamide]",26 nM
22,"CN(C)CCN(Cc1ccccc1)C(=O)COc1cccc2c1CN(C(=O)c1ccccc1)CC2 [Example 207, 2-(2-Benzoyl-1,2,3,4-tetrahydro-isoquinolin-8-yloxy)-N-benzyl-N-(2-dimethylamino-ethyl)-acetamide]",5 nM
